A word on the IC50: it is the concentration that gives 50% inhibition.

In the experiment the target is T1, hCRTH2 receptor (Homo sapiens, UniProt Q9Y5Y4).
T1 construct: expressed in transfected cells; host or cells: HEK293
T1 sequence (Q9Y5Y4 1-395): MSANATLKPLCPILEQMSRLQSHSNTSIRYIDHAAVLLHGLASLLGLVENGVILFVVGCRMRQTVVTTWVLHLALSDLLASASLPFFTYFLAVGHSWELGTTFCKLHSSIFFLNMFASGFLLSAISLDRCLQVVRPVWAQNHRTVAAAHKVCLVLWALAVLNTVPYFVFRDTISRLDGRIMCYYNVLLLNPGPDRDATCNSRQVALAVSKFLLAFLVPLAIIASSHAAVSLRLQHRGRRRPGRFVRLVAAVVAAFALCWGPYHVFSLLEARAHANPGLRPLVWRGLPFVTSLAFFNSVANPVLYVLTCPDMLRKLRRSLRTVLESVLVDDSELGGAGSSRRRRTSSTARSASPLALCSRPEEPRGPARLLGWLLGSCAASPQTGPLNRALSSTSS
Description: Radioligand displacement assay (3H-PGD2) on hCRTH2 receptor membranes. In kind it is binding. Particulars: antagonistic activity. As to the method: First, recombinant HEK293-hCRTH2 cells were detached from culture plates into 5 ml buffer A/plate (Buffer A: 5 mM Tris, 1 mM MgCl2-6H2O pH=7.4) using a rubber policeman. Cells were then transferred into centrifugation tubes and centrifuged for 5 min at 400 g. The cell pellet was resuspended in the same buffer and tubes were frozen at −80° C. Cells were thawed and membrane fragments were generated by homogenization using a polytron homogenizer (30 seconds). The membrane fragments were then centrifuged at 3000 g for 20 minutes and resuspended in buffer C (Buffer C: 75 mM Tris, 25 mM MgCl2, 250 mM Saccharose pH 7.4). Aliquots of membrane fragments were stored at −20° C.
Binding assay was performed in a final assay volume of 250 μl. First, 25 μl of test compound, previously diluted in Binding-Buffer (Binding-Buffer: 50 mM Tris-Base, 100 mM NaCl, 1 mM EDTA, 0.1% BSA (protease free), 0.01% NaN3, 10 mM MnCl2, pH 7.0) was placed into each well. After addition of 75 μl Binding-Buffer, 50 μl of the radioligand ^3H-PGD2 (at 2.5 nM (220.000 dpm/well) from ANAWA ART0662) was added to each well. Binding assay was started by addition of 100 μl CRTH2 membrane fragments, reaching a final concentration of 20 μg/well. For non-specific binding, PGD2 was added to the reaction mixture to […] final concentration.
This assay mix was incubated for 90 minutes at room temperature and then filtered through a GF/C filter 96-well plate which was pre-soaked for 3 hours in 0.5% polyethyleneimine (PEI). The filter-wells were washed three times with ice cold Binding-Buffer. Then, 40 μl of Microscint-40 (Packard) was added to each well and the retained radioactivity quantified in a Topcount (Packard).

Setting [1] is: 3H-PGD2 displacement on HEK293-hCRTH2 membrane fragments.
Where [2] appears, read: 3H-PGD2 radioligand displacement, HEK293-hCRTH2 membranes.

The structures appear in SMILES notation.

For `COCCOC(=O)N1CCc2ccccc2C1c1cc(Cl)ccc1OCC(=O)O` (racemic) [Example 267], the 50% inhibitory concentration (IC50) under setting [1] is 21.2 nM.

In the case of `Cc1ccc(CCC(=O)N2CCc3ccccc3C2c2cc(Cl)ccc2OCC(=O)O)c(C)n1` (racemic) [Example 455], under setting [2], the IC50 was determined as 200 nM. That is a sub-micromolar value.

The molecule `COc1ccccc1[C@@H]1C[C@H]1C(=O)N1CCc2ccccc2C1c1cc(Cl)ccc1OCC(=O)O` (mixture of isomers) [Example 159] gave a concentration for half-maximal inhibition (IC50) under setting [1] of 21.2 nM.

With `O=C(O)COc1ccc(Cl)cc1C1c2ccccc2CN1C(=O)CCn1ncc2c(F)cccc21` (single isomer, unassigned) [Example 547, (4-Chloro-2-{2-[3-(4-fluoro-indazol-1-yl)-propionyl]-2,3-dihydro-1H-isoindol-1-yl}-phenoxy)-acetic acid], the concentration for half-maximal inhibition (IC50) under setting [2] came to 272 nM.

As for `COc1ccccc1OC(=O)N1CCc2ccccc2C1c1cc(F)ccc1OCC(=O)O` (racemic) [Example 168], under setting [1], the IC50 was found to be 109 nM.

With `O=C(O)COc1cccc(F)c1C1c2ccccc2CCN1C(=O)OCc1ccccc1` (racemic) [Example 216, (±)-1-(2-Carboxymethoxy-6-fluoro-phenyl)-3,4-dihydro-1H-isoquinoline-2-carboxylic acid benzyl ester], the half-inhibitory concentration (IC50) under setting [1] was found to be 182 nM.

As to `O=C(O)COc1ccc(Cl)cc1C1c2ccccc2CCN1C(=O)CCn1c(C(F)(F)F)cc2ccccc21` (racemic) [Example 405], the IC50 under setting [2] turned out to be 451 nM.

`Cc1nnnn1-c1ccc(CC(=O)N2CCc3ccccc3C2c2cc(F)ccc2OCC(=O)O)cc1` (racemic) [Example 55, (±)-[4-Fluoro-2-(2-{2-[4-(5-methyl-tetrazol-1-yl)-phenyl]-acetyl}-1,2,3,4-tetrahydro-isoquinolin-1-yl)-phenoxy]-acetic acid]: the IC50 under setting [1] is 800 nM. In other words, the sub-micromolar range.

As for `O=C(O)COc1ccc(Cl)cc1[C@@H]1c2ccc(F)cc2CCN1C(=O)OCc1ccncn1` [Example 333, (S)-1-(2-Carboxymethoxy-5-chloro-phenyl)-6-fluoro-3,4-dihydro-1H-isoquinoline-2-carboxylic acid pyrimidin-4-ylmethyl ester], under setting [2], the 50% inhibitory concentration (IC50) amounted to 45.7 nM. This lies in the double-digit nanomolar range.

Under setting [1], `O=C(O)COc1ccc(Cl)cc1C1c2ccccc2CCN1C(=O)CCc1cnnn1-c1ccccc1` (racemic) [Example 161] yielded an IC50 of 116 nM.

`Cc1ccccc1C1CC1C(=O)N1CCc2ccccc2C1c1cc(Cl)ccc1OCC(=O)O` (single isomer, unassigned) [Example 153, (±)-{4-Chloro-2-[2-((trans)-2-o-tolyl-cyclopropanecarbonyl)-1,2,3,4-tetrahydro-isoquinolin-1-yl]-phenoxy}-acetic acid (diastereosiomer 1)] had an IC50 under setting [1] of 123 nM.

Turning to `O=C(O)COc1ccc(Cl)cc1[C@@H]1c2ccc(F)c(F)c2CCN1C(=O)OCc1ccncn1` [Example 309, (S)-1-(2-Carboxymethoxy-5-chloro-phenyl)-5,6-difluoro-3,4-dihydro-1H-isoquinoline-2-carboxylic acid pyrimidin-4-ylmethyl ester], the IC50 under setting [2] is 4.77 nM.

In the case of `O=C(O)COc1ccc(F)cc1C1c2cc(F)cc(F)c2CCN1C(=O)OCc1ccccc1` (racemic) [Example 42, (±)-1-(2-Carboxymethoxy-5-fluoro-phenyl)-5,7-difluoro-3,4-dihydro-1H-isoquinoline-2-carboxylic acid benzyl ester], the concentration for half-maximal inhibition (IC50) under setting [1] turned out to be 6.84 nM. In other words, the single-digit nanomolar range.

Under setting [1], `O=C(O)COc1ccc(F)cc1C1c2ccccc2CCN1C(=O)Oc1ccccc1Cl` (racemic) [Example 170] came in with an IC50 of 169 nM.

`Cc1cnc(COC(=O)N2CCc3c(ccc(F)c3F)[C@H]2c2cc(Cl)ccc2OCC(=O)O)s1` [Example 301, (S)-1-(2-Carboxymethoxy-5-chloro-phenyl)-5,6-difluoro-3,4-dihydro-1H-isoquinoline-2-carboxylic acid 5-methyl-thiazol-2-ylmethyl ester] returned an IC50 under setting [2] of 4.55 nM.

Turning to `O=C(O)COc1ccc(Cl)cc1C1c2ccc(F)cc2CCN1C(=O)[C@@H]1C[C@H]1c1ccccc1C(F)(F)F` (mixture of isomers) [Example 429], the 50% inhibitory concentration (IC50) under setting [2] came to 2.21 nM.

In the case of `CCn1nc(C)cc1CCOC(=O)N1CCc2c(ccc(F)c2F)[C@H]1c1cc(Cl)ccc1OCC(=O)O` [Example 314, (S)-1-(2-Carboxymethoxy-5-chloro-phenyl)-5,6-difluoro-3,4-dihydro-1H-isoquinoline-2-carboxylic acid 2-(2-ethyl-5-methyl-2H-pyrazol-3-yl)-ethyl ester], under setting [2], the IC50 was determined as 9.8 nM.

In turn, `O=C(O)COc1ccc(Cl)cc1C1c2ccccc2CN1C(=O)CCOc1cccc(F)c1` (racemic) [Example 517] registered a half-inhibitory concentration (IC50) under setting [2] of 123 nM.

In turn, `Cc1ccccc1OCC(=O)N1CCc2ccccc2C1c1cc(F)ccc1OCC(=O)O` (racemic) [Example 136, (±)-{4-Fluoro-2-[2-(2-o-tolyloxy-acetyl)-1,2,3,4-tetrahydro-isoquinolin-1-yl]-phenoxy}-acetic acid] returned an IC50 under setting [1] of 119 nM.

Consider `COc1ccc2c(ccn2CCC(=O)N2CCc3ccccc3C2c2cc(Cl)ccc2OCC(=O)O)c1` (racemic) [Example 459], for which the concentration for half-maximal inhibition (IC50) under setting [2] was found to be 160 nM.

As to `O=C(O)COc1ccc(F)cc1C1c2ccccc2CCN1C(=O)Cc1csc2ccccc12` (racemic) [Example 58, (±)-{2-[2-(2-Benzo[b]thiophen-3-yl-acetyl)-1,2,3,4-tetrahydro-isoquinolin-1-yl]-4-fluoro-phenoxy}-acetic acid], the 50% inhibitory concentration (IC50) under setting [1] stood at 123 nM. That is a sub-micromolar value.

Under setting [2], `O=C(O)COc1ccc(Cl)cc1C1c2ccccc2CCN1C(=O)CCn1ccc2ccncc21` (racemic) [Example 372] came in with an IC50 of 596 nM.

The molecule `O=C(O)COc1ccc(Cl)cc1C1c2ccc(F)c(F)c2CN1C(=O)OCc1ccccc1` (racemic) [Example 559] yielded an IC50 under setting [2] of 11.2 nM.

`O=C(O)COc1ccc(Cl)cc1[C@@H]1c2ccc(F)c(F)c2CCN1C(=O)OCCc1cccc(F)c1` [Example 311, (S)-1-(2-Carboxymethoxy-5-chloro-phenyl)-5,6-difluoro-3,4-dihydro-1H-isoquinoline-2-carboxylic acid 2-(3-fluoro-phenyl)-ethyl ester]: under setting [2], the half-inhibitory concentration (IC50) stood at 11 nM.

Molecule `Cc1nn(CCC(=O)N2Cc3ccccc3C2c2cc(Cl)ccc2OCC(=O)O)c2cccc(Cl)c12` (single isomer, unassigned) [Example 529] showed a half-maximal inhibitory concentration (IC50) under setting [2] of 78 nM. This IC50 is about 7.1-fold higher than that of the molecule before.

For `O=C(O)COc1ccc(Cl)cc1[C@@H]1c2ccc(F)cc2CCN1C(=O)CCn1ncc2cccc(Cl)c21` [Example 400], the IC50 under setting [2] is 678 nM.

In turn, `O=C(O)COc1ccc(Cl)cc1C1c2ccccc2CCN1C(=O)OCc1ccccc1C(F)(F)F` (racemic) [Example 236] returned an IC50 under setting [1] of 5.59 nM.

Turning to `O=C(O)COc1ccc(Cl)cc1[C@@H]1c2ccccc2CCN1C(=O)[C@@H]1C[C@H]1c1ccc(F)cc1` [Example 566, (4-Chloro-2-{(S)-2-[(1R,2R)-2-(4-fluoro-phenyl)-cyclopropanecarbonyl]-1,2,3,4-tetrahydro-isoquinolin-1-yl}-phenoxy)-acetic acid], the half-maximal inhibitory concentration (IC50) (radioligand displacement (3H-PGD2), hCRTH2 receptor membranes) worked out at 2.17 nM.

Under setting [1], `O=C(O)COc1ccc(Cl)cc1C1c2ccccc2CCN1C(=O)OCc1cc(Cl)ccc1F` (racemic) [Example 259] returned a 50% inhibitory concentration (IC50) of 5.29 nM.

As for `O=C(O)COc1ccc(Cl)cc1C1c2ccccc2CCN1C(=O)CC1CC1` (racemic) [Example 68, (±)-{4-Chloro-2-[2-(2-cyclopropyl-acetyl)-1,2,3,4-tetrahydro-isoquinolin-1-yl]-phenoxy}-acetic acid], the 50% inhibitory concentration (IC50) under setting [1] stood at 508 nM.

The values above are taken from patent publication US8575158B2, “1-phenyl-substituted heterocyclyl derivatives and their use as prostaglandin D2 receptor modulators” (Actelion Pharmaceuticals Ltd., priority 2010, dated 2013).
